# From publication PMC6155162, “Identification of mesothelioma-specific sialylated epitope recognized with monoclonal antibody SKM9-2 in a mucin-like membrane protein HEG1” (Scientific Reports, 2018)
# “Also recorded” adds a separate entry of the source.
# Experiments:
# SKM9-2 = assay: SPR analysis of binding between SKM9-2 and soluble His-tagged minimum epitope peptides (SKMepmin)
# Procedure: Figure 5 SPR analysis of the binding kinetics between SKM9-2 and mutants of minimum epitope. A soluble His-tagged mutant of minimum epitope (SKMepmin) was secreted from transfected HEK293T and immobilized as a ligand on the Ni^2+-binding sensor chip NTA. The upper sensorgrams show the binding kinetics of analyte (5 µg/mL of SKM9-2) to SKMepmins. The control without any peptide is shown as “No peptide” and the negative control peptide cycle is shown as “Control peptide”. The glycan-digested SKMepmin3 that was treated with Neuraminidase A and O-Glycosidase was used as the negative control peptide. The dissociation constant in the lower bar graph was calculated using the manufacturer’s instructions. RU, response units; Signal sequence, the artificial signal sequence (MAPLLLLLLPLLLLPPAAP).
# (§1) Figure 7 SPR analysis of bindings of lectin and SKM9-2 to glycosidase-treated SKMepmin3. Purified SKMepmin3 was incubated with α2-3 Neuraminidase S, Neuraminidase A, or Neuraminidase A + O-Glycosidase; and then was immobilized as a ligand on Ni^2+-binding sensor chip NTA. The analytes were used at a concentration of 5 µg/mL. (a) ABA, (b) Jacalin, (c) rACG, (d) SKM9-2. Glycosidase-digested sample was not tested in the experiment with rACG.
# (§2) Cell lysate or SKMepmin3 was treated with α2-3 Neuraminidase S, α2-3, 6, 8, 9 Neuraminidase A, and O-Glycosidase (New England Biolabs Japan, Tokyo, Japan) in 50 mM sodium phosphate (pH 7.5) containing 1% Nonidet P-40, according to the manufacturer’s instructions. The cell lysate sample was resolved by 4–15% or 6% SDS-PAGE under reducing conditions and detected by western blotting using SKM9-2. The analysis of the SKMepmin3 sample was performed by SPR.
# (§3) The binding of SKM9-2 or lectin to SKMepmin was measured by SPR analysis. SKMepmin was diluted with a running buffer (10 mM HEPES buffer (pH 8.1) containing 150 mM NaCl and 0.005% Tween-20), flowed on Ni^2+-binding sensor chip NTA (GE Healthcare), and affinity-bound through His-tag as a ligand on the sensor chip. Binding analysis of SKM9-2 was performed in a running buffer containing 50 µM EDTA. A non-treated flow cell was used as a reference cell. SKM9-2, anti-sialyl Lewis^X (CSLEX1, Becton, Dickinson and Company Japan, Tokyo, Japan), rACG (Wako Pure Chemical Industries), biotinylated ABA (J-Oil Mills, Inc., Tokyo, Japan), or biotinylated Jacalin (Vector Laboratories, Inc., Burlingame, CA, USA) (each 5 µg/mL) was injected as an analyte with the running buffer. As a regeneration buffer, 350 mM EDTA was used. The dissociation constant was calculated using the manufacturer’s instructions.
# [1] = system: Agaricus bisporus agglutinin (ABA); assay: SPR lectin binding analysis of glycosidase-treated SKMepmin3: ABA; conditions: ABA 5 µg/mL
# Procedure: as §1, §2, §3
# Jacalin = assay: SPR lectin binding analysis of glycosidase-treated SKMepmin3: Jacalin
# Procedure: as §1, §2, §3
# [2] = system: recombinant Agrocybe cylindracea lectin (rACG); assay: SPR lectin binding analysis of SKMepmin3: rACG; conditions: non-treated SKMepmin3, rACG 5 µg/mL
# Procedure: as §1, §3
# [3] = system: anti-sialyl Lewis^X (CSLEX1); assay: SPR analysis of binding of anti-sialyl LewisX to SKMepmin3; conditions: purified SKMepmin3 on sensor chip NTA, analyte 5 µg/mL
# Procedure: as §3
# Supplementary Fig. S2. SPR analysis of binding of anti-sialyl LewisX to SKMepmin3.
# Purified SKMepmin3 was immobilized as a ligand on Ni2+-binding sensor chip NTA. The analytes
# were used at the concentration of 5 µg/mL.
sequence,measurement,setting,value
"MAPLLLLLLPLLLLPPAAPGGSKAPSLVSLPAGGDYKDDDDKHHHHHHHH [SKMepmin3, minimum glycosylation peptide 893-…-903 -FLAG-Hisx8 with two disialyl T at Ser893 and Ser900]",Kd,"SKM9-2; His-tagged SKMepmin secreted from transfected HEK293T immobilized on Ni2+-binding sensor chip NTA, analyte 5 µg/mL SKM9-2, running buffer 10 mM HEPES pH 8.1, 150 mM NaCl, 0.005% Tween-20, 50 µM EDTA, read-out: KD (M), dissociation constant",2.82e-09 M
same,persistent binding of SKM9-2,"SKM9-2; SKMepmin3 desialylated with Neuraminidase A, SKM9-2 5 µg/mL",lost
same,SKM9-2 binding,"SKM9-2; SKMepmin3 treated with α2–3 Neuraminidase S, SKM9-2 5 µg/mL",weakened
same,association rate between SKM9-2 and epitope peptide (in words),"SKM9-2; analyte 5 µg/mL SKM9-2, change caused by the substitution",increased
same,interaction between SKM9-2 and SKMepmin3,"SKM9-2; complete digest of glycan using O-Glycosidase (with Neuraminidase A), SKM9-2 5 µg/mL",eliminated
same,ABA binding,[1]; SKMepmin3 deglycosylated with O-Glycosidase and Neuraminidase A,lost
same,ABA binding,[1]; SKMepmin3 desialylated with Neuraminidase A,enhanced
same,ABA binding,[1]; non-treated SKMepmin3 as ligand,bound
same,Jacalin binding,"Jacalin; SKMepmin3 desialylated with Neuraminidase A, Jacalin 5 µg/mL",recognized
same,Jacalin binding,"Jacalin; deglycosylated SKMepmin3 (Neuraminidase A + O-Glycosidase), Jacalin 5 µg/mL",not
same,Jacalin binding,"Jacalin; non-treated SKMepmin3, Jacalin 5 µg/mL",did not bind
same,rACG binding,[2],interacted
same,anti-sialyl Lewis^X antibody binding,[3],did not bind; also recorded: not bound
